Converted amounts (≈) assume the structure as drawn.

Series [1] is described as follows: UV/Vis of retinol during release from retinol-doped silica particles. The class given is physicochemical. The settings on record: release in anhydrous ethanol.
For series [2] the following is noted: cited from earlier work.
Series [3] in a line: Release of SB-35 dye from silica microparticles (UV/Vis). The class given is physicochemical. The settings on record: in cyclohexane, compared with dodecane. As to the method: 1. The encapsulation efficiency and release rate of the hydrophobic dye were determined by UV/Vis spectroscopy (Cary 50). The encapsulation efficiency was estimated by two methods. The first one was an indirect measurement, which consisted of measuring the U/Vis absorbance of the cyclohexane/Span 80 solutions after the silica particles had been filtered out. The encapsulation efficiency of the dye was calculated by subtracting the dye measured in the outer oil phase from the original dye concentration introduced into the system. A standard calibration curve was generated by adding accurate amounts of dye into the outer oil phase, with identical composition and concentration as the one used for the preparation of the corresponding samples. The second “direct” method consisted of measuring the release of SB-35 from the silica particles in a solvent such as ethanol, cyclohexane or dodecane, until the absorbance was stable. A standard calibration curve was produced by using the identical composition and concentration as the sample release media. (The surfactant content was estimated by the TGA/DTA result). The absorbance was measured at different intervals of time while stirring the product to produce the dye release curve.
The faster release rate observed in the case of the cyclohexane may be explained by the higher lipophilicity of the cyclohexane. […]

Consider `CC1=C(/C=C/C(C)=C/C=C/C(C)=C/CO)C(C)(C)CCC1` [retinol], for which, in series [1], the “retinol UV/Vis band during release” value is on record as “disappeared”.
Take `CN(C)C(=O)Nc1ccc(Cl)c(Cl)c1` [diuron, 3-(3,4-Dichlorophenyl)-1,1-dimethylurea]: the solubility in methanol in series [2] is given as 43 mg/mL (≈ 184 mM).
For the molecule `CCCCNc1ccc(NCCCC)c2c1C(=O)c1ccccc1C2=O` [SB-35, Solvent Blue 35], the “release rate of SB-35 from silica microparticles” value in series [3] is “faster than in dodecane”.
